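A five-concentration, 48-hour dose response in 96-well plates underlies each endpoint, interpolated linearly between surrounding concentrations. GI50 marks 50% less growth.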 The source made the active and inactive calls. No stated cut-off is given here; in the data, active = GI50 up to about 1.1 µM and inactive = higher.
What was measured:
Assay in all cases: NCI tumour cell line growth inhibition, 48 h
A549 = test system: A549
MDA-N = test system: MDA-N
OVCAR-4 = test system: OVCAR-4
K562 = test system: K562
OVCAR-5 = test system: OVCAR-5
A498 = test system: A498
SK-OV-3 = test system: SK-OV-3
OVCAR-3 = test system: OVCAR-3
SR = test system: SR
HL-60 = test system: HL-60
SN12C = test system: SN12C
MDA-MB-231 = test system: MDA-MB-231
DU-145 = test system: DU-145
HT-29 = test system: HT-29
U-251 = test system: U-251
RPMI-8226 = test system: RPMI-8226
LOX IMVI = test system: LOX IMVI
SK-MEL-28 = test system: SK-MEL-28
UO-31 = test system: UO-31

Measured: GI50

O=C(O)/C=C\C(=O)Nn1c(Cc2ccc(Cl)cc2)n[nH]c1=O
inactive: A549 > 100 µM | MDA-N > 100 µM | OVCAR-4 > 100 µM | K562 > 100 µM | OVCAR-5 > 100 µM | A498 > 100 µM | SK-OV-3 > 100 µM | OVCAR-3 > 100 µM | SR > 100 µM | HL-60 > 100 µM | SN12C > 100 µM | MDA-MB-231 > 100 µM | DU-145 > 100 µM | HT-29 > 100 µM | U-251 > 100 µM

CCc1ccc2oc(=O)ccc2c1
inactive: A549 > 100 µM | RPMI-8226 91 µM | MDA-N > 100 µM | OVCAR-4 > 100 µM | LOX IMVI > 100 µM | K562 > 100 µM | OVCAR-5 > 100 µM | SK-MEL-28 > 100 µM | A498 > 100 µM | OVCAR-3 > 100 µM | SR > 100 µM | UO-31 31.4 µM | HL-60 42.5 µM | SN12C > 100 µM | MDA-MB-231 > 10 µM | DU-145 > 10 µM | HT-29 > 100 µM | U-251 > 100 µM

CC(=O)Oc1ccc2c(C)cc(=O)oc2c1OC(C)=O
inactive: A549 38.4 µM | RPMI-8226 24.5 µM | MDA-N > 100 µM | OVCAR-4 46.8 µM | LOX IMVI 22.2 µM | K562 47.8 µM | OVCAR-5 93.5 µM | SK-MEL-28 33.9 µM | A498 37.7 µM | SK-OV-3 > 100 µM | OVCAR-3 40.4 µM | SR 17.3 µM | UO-31 26.5 µM | SN12C 57.8 µM | MDA-MB-231 48.9 µM | DU-145 28.3 µM | HT-29 29.9 µM | U-251 35.2 µM

COc1ccc(-n2cnc3c(NC(C)(C)C(=O)O)ncnc32)cc1
inactive: A549 > 100 µM | RPMI-8226 > 100 µM | MDA-N > 100 µM | OVCAR-4 > 100 µM | LOX IMVI > 100 µM | K562 > 100 µM | OVCAR-5 > 100 µM | SK-MEL-28 > 100 µM | A498 > 100 µM | SK-OV-3 > 100 µM | OVCAR-3 > 100 µM | SR > 100 µM | UO-31 > 100 µM | SN12C > 100 µM | MDA-MB-231 > 100 µM | DU-145 > 100 µM | HT-29 > 100 µM | U-251 > 100 µM

Cc1ccc(C)n1-n1c(Cc2ccc(Cl)cc2)n[nH]c1=O
inactive: A549 69 µM | RPMI-8226 33.3 µM | MDA-N > 100 µM | OVCAR-4 > 100 µM | LOX IMVI 59.4 µM | K562 41.1 µM | OVCAR-5 > 100 µM | SK-MEL-28 > 100 µM | A498 > 100 µM | SK-OV-3 > 100 µM | OVCAR-3 54.5 µM | SR 33.2 µM | UO-31 58.7 µM | SN12C > 100 µM | MDA-MB-231 > 100 µM | DU-145 > 100 µM | HT-29 73.8 µM | U-251 77.6 µM

CC(=O)Nc1ccc(NCC(=O)Nn2cnc3ccc(S(=O)(=O)Nc4ccc(NC(C)=O)cc4)cc3c2=O)cc1
inactive: A549 > 100 µM | RPMI-8226 > 100 µM | MDA-N > 100 µM | OVCAR-4 > 100 µM | LOX IMVI > 100 µM | K562 > 100 µM | OVCAR-5 > 100 µM | SK-MEL-28 > 100 µM | SK-OV-3 > 100 µM | OVCAR-3 > 100 µM | SR > 100 µM | UO-31 > 100 µM | HL-60 > 100 µM | SN12C > 100 µM | MDA-MB-231 > 100 µM | DU-145 > 100 µM | HT-29 > 100 µM | U-251 > 100 µM

COc1cc(C(=O)N(C(=O)N2CCCCC2)c2ccccc2)cc(OC)c1OC
inactive: A549 > 100 µM | RPMI-8226 89.1 µM | MDA-N > 100 µM | LOX IMVI > 100 µM | K562 > 100 µM | OVCAR-5 > 100 µM | SK-MEL-28 > 100 µM | A498 > 100 µM | SK-OV-3 > 100 µM | OVCAR-3 > 100 µM | SR > 100 µM | UO-31 > 100 µM | SN12C > 100 µM | MDA-MB-231 > 100 µM | DU-145 > 100 µM | U-251 > 100 µM

CC(C)C(NCc1c(O)ccc2c(-c3ccccc3)cc(=O)oc12)C(=O)O (centres undefined)
inactive: A549 > 100 µM | RPMI-8226 > 100 µM | MDA-N > 100 µM | OVCAR-4 > 100 µM | LOX IMVI > 100 µM | K562 > 100 µM | OVCAR-5 > 100 µM | SK-MEL-28 > 100 µM | SK-OV-3 > 100 µM | OVCAR-3 > 100 µM | SR > 100 µM | UO-31 > 100 µM | HL-60 > 100 µM | SN12C > 100 µM | MDA-MB-231 > 100 µM | DU-145 > 100 µM | HT-29 > 100 µM | U-251 > 100 µM

CCCC(=O)N/S(=N/S(=O)(=O)c1ccc(Cl)cc1)C(Cl)(Cl)Cl (centres undefined)
inactive: A549 > 100 µM | MDA-N > 100 µM | K562 > 100 µM | OVCAR-5 > 100 µM | SK-MEL-28 > 100 µM | A498 > 100 µM | SK-OV-3 > 100 µM | OVCAR-3 > 100 µM | SR > 100 µM | UO-31 > 100 µM | HL-60 > 100 µM | SN12C > 100 µM | MDA-MB-231 > 100 µM | DU-145 > 100 µM | HT-29 > 100 µM | U-251 47.9 µM

Nc1c(Br)cc(-c2nc3ccccc3s2)cc1Br
inactive: A549 > 100 µM | MDA-N > 100 µM | K562 > 100 µM | OVCAR-5 > 100 µM | SK-MEL-28 > 100 µM | A498 > 100 µM | SK-OV-3 > 100 µM | OVCAR-3 > 100 µM | SR > 100 µM | UO-31 > 100 µM | HL-60 > 100 µM | SN12C > 100 µM | MDA-MB-231 > 100 µM | DU-145 > 100 µM | HT-29 > 100 µM | U-251 > 100 µM

Cc1cc(C)nc(NS(=O)(=O)c2ccc(NNc3c4ccccc4nc4c(C(=O)Nc5ccc(S(=O)(=O)Nc6ncccn6)cc5)cccc34)cc2)n1
inactive: A549 38.7 µM | RPMI-8226 29.9 µM | MDA-N 31.1 µM | OVCAR-4 33.7 µM | LOX IMVI 20.7 µM | K562 28.6 µM | OVCAR-5 16.4 µM | SK-MEL-28 29.5 µM | SK-OV-3 31.5 µM | OVCAR-3 19.2 µM | SR 8.41 µM | UO-31 30.2 µM | HL-60 25.7 µM | SN12C 20.4 µM | MDA-MB-231 31.3 µM | DU-145 31.8 µM | HT-29 27.9 µM | U-251 21.8 µM
